Data from the METLIN SMRT retention time set (Domingo-Almenara et al. 2019).

Experiment: gradient 5% acetonitrile 3 min, to 50% in 2 min, to 85% in 15 min, held 3 min, 100 µL/min
Details: column: Zorbax Extend-C18 2.1 x 50 mm; eluents: water / acetonitrile, 0.1% formic acid
In short: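 In both positive and negative ionization mode, a quadrupole time-of-flight mass spectrometer coupled to HPLC analyzed pure standards run in mixtures of ~100 molecules. The Zorbax Extend-C18 column (2.1 × 50 mm, 1.8 μm) was operated at 100 μL/min with water and acetonitrile, each containing 0.1% formic acid. The dead volume was 40 μL and the dwell volume 900 μL. Retention time came from adduct peaks that were computationally picked and individually inspected by hand.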

Structure (SMILES)	RP-LC retention time
CCN1CCN(CCNC(=O)c2sc3ncccc3c2-n2c(C)ccc2C)CC1	574 s
Cc1cn(-c2cc(NC(=O)c3ccc(C)c(Nc4nccc(-c5cccnc5)n4)c3)cc(C(F)(F)F)c2)cn1	776 s
O=C(Nc1ccc(Br)cc1F)C1CCCN(C(=O)c2cccc(C(F)(F)F)c2)C1 (configuration not stated)	1060 s
CCN1C(=O)COc2ccc(-c3nc(NC(=O)C4CCCCC4)sc3C)cc21	652 s
O=C(Nc1ccccc1)c1cc(C2CC2)on1	912 s
CCN(CC)CCCNc1ncnc2c1cnn2-c1ccc(C)c(C)c1	663 s
O=C(CCC[C@@H]1[C@H]2CCCN3CCC[C@@H](CN1C(=O)c1ccco1)[C@@H]23)Nc1ccccc1	614 s
CCNC(=O)N1CCCC(c2nn(C)c(=O)n2C2CCCC2)C1 (configuration not stated)	630 s
COC(=O)c1cccc(NC(=O)C2CC(=O)N(c3ccc4c(c3)CCN4C(C)=O)C2)c1 (configuration not stated)	687 s
CCC(=O)N1CCc2c(C(=O)NCc3ccc(N4CCC(C)CC4)cc3)cccc21	640 s
c1cn(-c2ccc(SC3CCCC3)nn2)cn1	604 s
O=C(Cc1ccc(NS(=O)(=O)c2ccc3c(c2)CCCC3)cc1)NC1CC1	766 s
COc1cc(N2C=C(C#N)S(=O)(=O)c3c(F)cccc32)cc(OC)c1OC	857 s
Cc1ccc(C)c(NC(=O)N2CCCC(Cn3cnc4cccnc43)C2)c1 (configuration not stated)	676 s
Cc1nc(-c2nc(-c3cccs3)cs2)cn1CC(=O)N1CCN(c2ccccc2)CC1	813 s
Cc1ccc(OCC(=O)N(Cc2ccc(N(C)C)cc2)Cc2ccco2)cc1	795 s
CC(C)(C)NC(=O)c1ccc(-n2cc(CNC(=O)C3CCC3)cn2)cc1	710 s
CCCCCCC(C)OC(=O)c1ccccc1C(=O)O (configuration not stated)	1130 s
O=C(c1cnccn1)N1CCCC1c1nc(CCOCC2CC2)no1 (configuration not stated)	698 s
COC(=O)C(C)NC(=O)N1CCCN(C2=NS(=O)(=O)C(c3ccc(C)cc3)=C2C)CC1 (configuration not stated)	736 s
O=C(O)C1CCCN(c2cn[nH]c(=O)c2)C1 (configuration not stated)	564 s
O=C(Oc1cccc(Oc2ccccc2)c1)N1CCOCC1	889 s
O=C(Nc1ccccc1)N1CCc2[nH]cnc2C1c1ccccc1 (configuration not stated)	625 s

Structure (SMILES)	RP-LC retention time
CCCOc1cc(N2CCN(C(=O)CC(C)C)CC2)nc(C)n1	597 s
CC1CCN(C(=O)C2=NNc3ccccc3S2(=O)=O)CC1	740 s
O=C(NCCOc1ccc(-c2ccccn2)nn1)c1ccco1	555 s
CCNc1nccc(N2CCC(CC(=O)NCC(C)C)CC2)n1	563 s
COC(=O)c1c(NCC2CC2)c2cccc(Cl)c2[nH]c1=O	757 s
CCC(CC)C(=O)N1CCCC(Cn2c(C3CC3)nc3cccnc32)C1 (configuration not stated)	682 s
CCS(=O)(=O)c1nc2ccc(NS(=O)(=O)c3cccc(Cl)c3)cc2s1	928 s
CCc1ccc(C2=C(C)C(N3CCCN(C(=O)C4CC4)CC3)=NS2(=O)=O)cc1	843 s
Cc1ccc(-n2nc(CO)c(C(=O)NC(C)C)n2)cc1C	983 s
COc1cc(C(=O)N2CCC(CC(=O)N3CCN(c4ccccn4)CC3)CC2)cc(OC)c1OC	595 s
O=C([C@@H]1C[C@H](Oc2cccnc2)CN1C(=O)Cn1c(=O)oc2ccccc21)N1CCCC1	601 s
O=C(c1ccc2[nH]ccc2c1)N1CCCN(C2CCN(CC3CC3)C2=O)CC1 (configuration not stated)	888 s
Cc1cc(NC(=O)Cn2cnc3c(cnn3C(C)(C)C)c2=O)no1	688 s
O=C(c1ccco1)N1CCC(n2c(-c3ccsc3)nc3cccnc32)C1 (configuration not stated)	644 s
O=C(C1CCCN(c2nnc3ccc(Cl)cn23)C1)N1CCN(C2CCCCC2)CC1 (configuration not stated)	525 s
O=C(Nc1ccc(F)cc1F)N1CCC(N(C(=O)C2CC2)C2CCOCC2)CC1	719 s
CC(=O)Nc1nc(-c2ccc3c(c2)NC(=O)C(C)O3)c(C)s1 (configuration not stated)	701 s
COc1ccc(NC(=O)c2cc(S(=O)(=O)N3CCC(C)CC3)cn2C)c(OC)c1	1020 s
CN1C(=O)c2ccccc2C(C(=O)NCCN(Cc2ccco2)C2CCCC2)C1c1cccs1 (configuration not stated)	674 s
Cc1cc2c(cc1CNC(=O)Cn1c(C)c(C#N)c3ccccc31)OCCCO2	894 s
CCOCCCNC(=O)Cc1c(C)n(C)c2nc(-c3ccccc3)nn2c1=O	649 s
Cc1nc(C)c(C(=O)N2CCc3cc(-c4csc(C5CC5)n4)ccc32)s1	1020 s

Second part, the compound after the results:

RP-LC retention time	Structure (SMILES)
712 s	CC1CCN(S(=O)(=O)c2ccc(-c3nnc(C(=O)NCCCN4CCCCCC4)o3)cc2)CC1
1270 s	Cc1cccc(-c2noc(C3CCCN3S(=O)(=O)c3ccc(C)c(Cl)c3)n2)c1 (configuration not stated)
873 s	COc1ccccc1Cc1noc(C2CN(C(=O)c3ccccc3C(F)(F)F)C2)n1
908 s	Cc1ccccc1S(=O)(=O)N1CCC(c2noc(-c3cccnc3)n2)C1 (configuration not stated)
887 s	COC(=O)c1cccc(Nc2c(-c3ccc(SC)cc3)nc3cnccn23)c1
1040 s	O=c1ccc(-c2ccc3c(c2)OCO3)nn1CCc1nc(-c2ccc(Cl)cc2)no1
933 s	COc1ccc(Cl)cc1NC(=O)N1C[C@@H](F)C[C@H]1C(=O)N1CCc2ccccc2C1
746 s	Cc1ccc(C)c(Nc2c(-c3ccc(N4CCOCC4)cc3)nc3ncccn23)c1
888 s	COc1ccc(Cn2nc3c(S(=O)(=O)N4CCCCC4)cccn3c2=O)cc1F
721 s	CCN1CCN(Cc2ccc(C(=O)NCc3ccccc3C(F)(F)F)cc2)C(=O)C1=O
690 s	Cn1cnc2c(C(=O)N3CCOCC3)nn(-c3ccc(Cl)cc3)c2c1=O
588 s	Cc1noc(C)c1S(=O)(=O)N1CCC2(CC1)NCCc1c2[nH]c2ccccc12
1280 s	Cc1cc(F)ccc1NC(=O)c1c(O)c2cccnc2n(-c2ccccc2)c1=O
707 s	COc1cccc(C(=O)CC2(O)C(=O)Nc3ccc(F)cc32)c1 (configuration not stated)
836 s	COc1ccccc1CNC(=O)Cn1c(=O)cc(-c2nc(C)no2)c2ccccc21
774 s	O=C(c1ccc(Cn2cncn2)cc1)N1CCN(c2ccc(Cl)cc2)CC1
946 s	O=C(Cn1c(N2CCCCC2)nc2ccccc2c1=O)NCc1ccc(Cl)cc1
914 s	CCc1noc(NC(C)=O)c1-c1ccc(C)c(S(=O)(=O)Nc2ccc(C)cc2Cl)c1
933 s	CCc1ccc(-c2cc(C(F)(F)F)on2)cc1S(=O)(=O)N1CCN(c2ccccn2)CC1
885 s	COc1ccc(-c2cc3nn(CC(=O)Nc4cc(F)ccc4C)c(=O)n3c(C)n2)cc1
754 s	CN1C(=O)c2cccnc2Sc2cc(NC(=O)c3c(F)cccc3F)ccc21

RP-LC retention time	Structure (SMILES)
737 s	CCN1c2ccccc2C(=O)NC12CCN(C(=O)Nc1ccc3c(c1)OCO3)CC2
1080 s	Cc1sc2ncnc(SCC(=O)Nc3nc(-c4ccccc4)ns3)c2c1C
795 s	Cc1cc(NC(=O)c2csc(-c3ccc(N4CCCC4)nc3)n2)ccc1F
815 s	Cc1ccccc1NC(=O)C1CCN(S(=O)(=O)c2ccc3c(c2)NC(=O)C(C)O3)CC1 (configuration not stated)
1130 s	Cc1cccc(Nc2nc(-c3ccc(C(C)C)cc3)cs2)n1
1280 s	Cc1ccc(S(=O)(=O)N2CCCC2c2nc(-c3cccc(Cl)c3)no2)cc1F (configuration not stated)
1180 s	COc1ccc(-c2nc(C3CC(=O)N(c4ccc(OC)c(OC)c4)C3)no2)cc1 (configuration not stated)
853 s	Cc1cccc(N2CCN(C(=O)CN3CCN(Cc4ccccc4)C3=O)CC2)c1
770 s	N#Cc1nc(-c2ccco2)oc1N1CCN(C(=O)c2ccccc2F)CC1
1070 s	Cc1ccc(C(=O)Nc2ccc(N3CCN(c4ccccc4)C3=O)nc2)cc1C
899 s	COc1ccc(Cl)cc1NC(=O)NC1CCN(c2ccc(F)cc2)C1=O (configuration not stated)
986 s	Cc1nc(-c2cccc(-c3noc(CNC(=O)Cc4ccc(Cl)cc4)n3)c2)cs1
841 s	CCOC(=O)c1nc(Nc2ccc(C(=O)OC)cc2)c2ccccc2n1
852 s	CC1CCN(S(=O)(=O)c2ccc3nc(N4CCN(C(=O)c5ccco5)CC4)ccc3c2)CC1
970 s	Cn1nc(-c2nnc(-c3ccc(F)cc3)o2)c2c1CCN(S(=O)(=O)Cc1ccccc1Cl)C2
769 s	Cc1cc(-c2nnc(C3CC3)o2)c(C)n1CC(=O)NCc1ccccc1Cl
921 s	O=C(Cc1ccc(Cl)cc1)N1CCN(C(=O)c2nnn3c2COC(c2ccccc2)C3)CC1 (configuration not stated)
1150 s	Cc1nc(-c2ccc(-c3noc(CN4C(=O)COc5ccc(Cl)cc54)n3)cc2)cs1
870 s	CCOc1ccc(-c2nc(Cn3cnc4nc5c(cc4c3=O)CCCC5)c(C)o2)cc1
1030 s	O=C1N(c2ccc(F)cc2)c2ncccc2S(=O)(=O)N1Cc1cccc(F)c1
1190 s	Cc1cccc(N2CCN(c3ncc(S(=O)(=O)c4ccc(C)c(C)c4)c(N)n3)CC2)c1
